Experimental data: US12616674B2, “Anti-fibrotic NEU3 inhibitor compounds and methods of use” (The Texas A&M University System, priority 2019, dated 2026)

Tests used:
[1] = system: NEU3-induced IL-6 production by human PBMC; experiment: NEU3-induced extracellular IL-6 accumulation by human PBMC (IL-6 concentration assay); format: cell-based; settings: NEU3, serum-free medium, 48 hours
Protocol: Human peripheral blood was collected from healthy volunteers who gave written consent and with specific approval from the Texas A&M University human subjects review board. Peripheral blood mononuclear cells (PBMC) were isolated from the blood using Ficoll-Paque density gradient centrifugation (95021-205, GE Healthcare, Cincinnati, OH) following the manufacture's protocol. PBMC were cultured at […] in 96-well flat bottom tissue culture plates (type 62406-081; […] Louis, MO)) in a final volume of 200 μl per well. […] The sialidases were diluted in 100 μl of the same medium the cells were in, and added to 100 μl of cells at 1×10^5 cells/ml to make the total volume in a well 200 μl with 1×10^4 cells/well. The cells were then incubated at 37° C. in a humidified incubator with 5% CO2. The culture supernatants were collected after two or five days and assayed using an IL-6 ELISA kit (430501, Biolegend, San Diego, CA) following the manufacturer's protocol, reading absorbance with a SynergyMX plate reader (BioTek, Winooski, VT). Statistics were analyzed using Prism software (Graphpad, La Jolla, CA). At least three different donors were used for each assay. […] IL-6 in the culture supernatant was then assayed as described above. At least three different donors were used for each assay.

[2] = target: T1, recombinant human sialidase NEU3 (Homo sapiens, UniProt Q9UQ49); experiment: NEU3-catalyzed L-TGF-β1 activation (TGF-β1 release/concentration assay, active TGF-β1 ELISA); format: biochemical; settings: recombinant human NEU3, L-TGF-β1, PBS pH 6.9, 2 hours 37° C.; read-out: IC50, inhibits human NEU3 in the TGF-β1 concentration assay
T1 construct: purchased Origene TP316537
T1 sequence (Q9UQ49 1-428): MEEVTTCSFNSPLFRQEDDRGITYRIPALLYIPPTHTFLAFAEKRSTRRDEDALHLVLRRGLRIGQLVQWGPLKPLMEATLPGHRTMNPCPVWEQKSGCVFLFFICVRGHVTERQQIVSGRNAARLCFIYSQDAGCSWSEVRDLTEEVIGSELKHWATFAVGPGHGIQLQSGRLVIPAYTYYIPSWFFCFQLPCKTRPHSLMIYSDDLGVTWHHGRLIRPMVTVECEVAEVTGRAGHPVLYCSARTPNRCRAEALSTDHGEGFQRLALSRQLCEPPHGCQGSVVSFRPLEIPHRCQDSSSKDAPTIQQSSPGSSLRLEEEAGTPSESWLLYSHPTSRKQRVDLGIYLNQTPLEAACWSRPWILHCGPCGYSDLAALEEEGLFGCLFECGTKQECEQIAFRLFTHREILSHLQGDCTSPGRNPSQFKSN
Protocol: To determine if NEU3 can cause latent transforming growth factor-β1 (L-TGF-β1) to release active TGF-β1, 200 ng/ml recombinant human L-TGF-β1 (299-LT/CF, R&D Systems) was incubated with varying concentrations of recombinant human NEU3 (TP316537, Origene) in a total volume of 100 μl of PBS pH 6.9 in a 96-well microplate (651261, Greiner Bio-one, Monroe, NC). The microplates were covered with aluminum foil and incubated at 37° C. for 2 hours. Following incubation, the reaction mixtures were assayed using a TGF-β1 ELISA kit (DY240, R&D Systems) following the manufacturer's protocol with the exception that the reaction mixtures were not processed for acid treatment, so as to measure only active TGF-β1 and not total TGF-β1. The absorbance was read with a SynergyMX plate reader (BioTek, Winooski, VT).
To determine the ability of compounds 1-31 to inhibit human recombinant NEU3 in-vitro, compounds were dissolved in 5 ml water to 20 mM in 15 ml tubes (89039-664, VWR, Radnor, PA), with the exception that 4-hydroxypyridine-2-carboxylic acid, nicotinic acid, and 4-aminopicolinic acid were dissolved in 50 μl DMSO to 2 M, and this was then added to 4.95 ml of water to make a 20 mM stock, and O-(tetrahydro-2H-pyran-2yl) hydroxylamine and salicylic acid were dissolved in 50 μl methanol to 2 M, and this was then added to 4.95 ml of water to make a 20 mM stock. All stocks were stored at 4° C. and used within 2 weeks of preparation. A 10-fold dilution series of the compounds starting at 2 mM were made in PBS pH 6.9 in 1.7 ml clear microtubes (22-281, Genesee Scientific). 100 μl of diluted compound was added to the well of a 96 well plate and then 50 μl of 400 ng/ml recombinant human sialidase NEU3 (TP316537, Origene) in PBS pH 6.9 was added to each well (50 μl PBS pH 6.9 for the control), and the plate was incubated for 30 minutes at 37° C. 50 μl of 800 ng/ml L-TGF-β1 (299-LT/CF, R&D Systems) in PBS pH 6.9 was then added to the well. The plate was covered with aluminum foil and incubated for 2 hours at 37° C., and released active TGF-β1 was assayed as described above.

Compound	IC50 [1] [nM]	IC50 [2] [nM]
CN1CCC(N)CC1C(=O)O (stereo not drawn) [Compound 26, 2-piperidinecarboxylic acid, 4-amino-1-methyl]	0.01	< 0.01
CC(=O)c1ccccn1 [Compound 5, 2-acetylpyridine]	32000	42
COC(=O)c1ccccn1 [Compound 6, methyl picolinate]	> 100000	0.014
